Measured values published in patent publication US20050112573A1, “Method of detecting toxic substance” (priority 2001, published 2005).

Test system: yeast genes (level of expressed mRNA)
Assay: DNA chip analysis of expressed mRNA of yeast genes after 2 h culture with a toxic chemical substance
Type: cell-based, Saccharomyces cerevisiae S288C
Conditions: for The level of expressed mRNA in the presence of chemical substance/ (ratio to absence of chemical substance): stress protein genes, DNA chip
Protocol: Yeast (Saccharomyces cerevtisiae S288C (α SUC2mal mel gap2 CUP1)) were cultured at 25° C. on YPD medium (yeast extract 1%, polypepton 2%, glucose 2%). One of toxic chemical substances was added to the cell at logarithmic growth phase, and the cell was further cultured for two hours. Cell was cultured without any chemical substance in the same condition, and was used as control. Concentrations of the chemical substances were defined to inhibit the growth of the yeast but not lead to death.
After the completion of cultivation, the culture was centrifuged to collect the cells. To the cells, sodium acetate buffer (50 mM sodium acetate, 10 mM EDTA, 1% SDS) was added, and the mixture was shaken at 65° C. for five minutes, followed by returning to room temperature, and obtaining the supernatant, which procedure was repeated two times. To the supernatant, ½ amount of a solution of phenol/chloroform was added, and the mixture was centrifuged to give a supernatant, which was added with an equal amount of chloroform, and the mixture was centrifuged to give a supernatant. To the supernatant, an equal amount of isopropanol containing 0.3 M sodium acetate was added, and the mixture was allowed to stand at room temperature for 30 minutes, after which the mixture was centrifuged to give a sediment of the whole RNAs. Seventy % ethanol was added to the sediment, and the mixture was again centrifuged to give a sediment, which was then dried and dissolved in water. mRNA was isolated from the whole RNAs as followings. In view of the fact that a poly A chain is attached to the 3′ terminus of mRNA, a polynucleotide having a poly T structure which was immobilized on the surface of latex beads was used to trap the mRNA, and then the mRNA was washed and eluted with spine column (Oligotex-dT30<Super>mRNA Purification Kit, Takara). Reverse transcription of the mRNA was conducted with a reverse transcriptase (Super Script II Reverse Transcriptase; catalogue No. 18064-014, GibcoBRL) using fluorescence-labeled nucleotides to give cDNAs that were introduced with Cy3-dUTP or Cy5-dUTP during the reverse transcription.
The labeled cDNAs were dissolved in TE buffer (10 mM Tris-HCl/1 mM EDTA, pH8.0), and the solution was dropped on the DNA chip containing the whole genes of yeast (DNA Chip Research Inc. Japan) so that the cDNAs were hybridized on the DNA chip at 65° C. for over 12 hours. The fluoresces intensity of the DNA chip was read with a scanner, and the ratio relative to the fluorescence intensity resulting from the absence of chemical substance was estimated as the following, which is shown in Tables 1 to 9: [formula]
In the Tables, “Intensity” indicated in the rightmost column is a value of the level of expressed mRNA of each gene in control cells as divided by the average level of the expressions of the whole genes.

`CCCCC[C@H](O)CC(=O)CCc1ccc(O)c(OC)c1` [(13), gingerol] was tested, and the “The level of expressed mRNA in the presence of chemical substance/The level of expressed mRNA in the absence of chemical substance” value (yeast gene YIL140W) was 0.5, the “The level of expressed mRNA in the presence of chemical substance/ (in its absence), gene YJL070C” value (yeast gene YJL070C, ratio of DNA chip fluorescence intensity to that without chemical substance) was 1.8 and the “The level of expressed mRNA in the presence of chemical substance/The level of expressed mRNA in the absence of chemical substance” value (yeast gene YJL073W) was 1.6. For the same molecule, the “The level of expressed mRNA in the presence of chemical substance/The level of expressed mRNA in the absence of chemical substance” value (yeast gene YJL089W) was 1.8, the “The level of expressed mRNA in the presence of chemical substance/ (ratio to absence), gene YJL096W” value (yeast gene YJL096W, mitochondria-located protein genes, 2 h culture with chemical) was 0.7 and the “The level of expressed mRNA in the presence of chemical substance/The level of expressed mRNA in the absence of chemical substance” value (yeast gene YJL116C) was 4.3. For the same molecule, the “The level of expressed mRNA in the presence of chemical substance/ (ratio to absence of chemical substance)” value (yeast gene YJL158C) was 0.4, the “The level of expressed mRNA in the presence of chemical substance/ (in its absence), gene YJL167W” value (yeast gene YJL167W, ratio of DNA chip fluorescence intensity to that without chemical substance) was 0.9 and the “The level of expressed mRNA in the presence of chemical substance/ (ratio to absence), gene YJL180C” value (yeast gene YJL180C, mitochondria-located protein genes, 2 h culture with chemical) was 1.2. The “The level of expressed mRNA in the presence of chemical substance/ (in its absence), gene YJL216C” value (yeast gene YJL216C, ratio of DNA chip fluorescence intensity to that without chemical substance) was 1.1, the “The level of expressed mRNA in the presence of chemical substance/The level of expressed mRNA in the absence of chemical substance” value (yeast gene YJR004C) was 0.3 and the “The level of expressed mRNA in the presence of chemical substance/The level of expressed mRNA in the absence of chemical substance” value (yeast gene YJR086W) was 0.9. For the same molecule, the “The level of expressed mRNA in the presence of chemical substance/ (ratio to absence of chemical substance)” value (yeast gene YJR090C) was 2.2, the “The level of expressed mRNA in the presence of chemical substance/The level of expressed mRNA in the absence of chemical substance” value (yeast gene YKL008C) was 1.7 and the “The level of expressed mRNA in the presence of chemical substance/The level of expressed mRNA in the absence of chemical substance” value (yeast gene YKL013C) was 1.3. For the same molecule, the “The level of expressed mRNA in the presence of chemical substance/The level of expressed mRNA in the absence of chemical substance” value (yeast gene YKL039W) was 1.9, the “The level of expressed mRNA in the presence of chemical substance/The level of expressed mRNA in the absence of chemical substance” value (yeast gene YKL041W) was 1.3 and the “The level of expressed mRNA in the presence of chemical substance/The level of expressed mRNA in the absence of chemical substance” value (yeast gene YKL096W) was 0.1. The “The level of expressed mRNA in the presence of chemical substance/ (ratio to absence of chemical substance)” value (yeast gene YKL164C) was 0.9, the “The level of expressed mRNA in the presence of chemical substance/The level of expressed mRNA in the absence of chemical substance” value (yeast gene YKL165C) was 3.2 and the “The level of expressed mRNA in the presence of chemical substance/The level of expressed mRNA in the absence of chemical substance” value (yeast gene YKL193C) was 2.1. The “The level of expressed mRNA in the presence of chemical substance/ (in its absence), gene YKR009C” value (yeast gene YKR009C, ratio of DNA chip fluorescence intensity to that without chemical substance) was 1.8, the “The level of expressed mRNA in the presence of chemical substance/ (in its absence), gene YKR034W” value (yeast gene YKR034W, ratio of DNA chip fluorescence intensity to that without chemical substance) was 1.2 and the “The level of expressed mRNA in the presence of chemical substance/ (ratio to absence of chemical substance)” value (yeast gene YKR053C) was 0.7. The “The level of expressed mRNA in the presence of chemical substance/ in its absence, gene YKR058W” value (yeast gene YKR058W, energy system protein genes, 2 h culture with the chemical, ratio to control without chemical) was 0.7, the “The level of expressed mRNA in the presence of chemical substance/ (in its absence), gene YLR006C” value (yeast gene YLR006C, ratio of DNA chip fluorescence intensity to that without chemical substance) was 0.8 and the “The level of expressed mRNA in the presence of chemical substance/ (ratio to absence of chemical substance)” value (yeast gene YLR006C) was 0.8. For the same molecule, the “The level of expressed mRNA in the presence of chemical substance/The level of expressed mRNA in the absence of chemical substance” value (yeast gene YLR120C) was 4.8, the “The level of expressed mRNA in the presence of chemical substance/The level of expressed mRNA in the absence of chemical substance” value (yeast gene YLR136C) was 2.9 and the “The level of expressed mRNA in the presence of chemical substance/The level of expressed mRNA in the absence of chemical substance” value (yeast gene YLR178C) was 7.5. The “The level of expressed mRNA in the presence of chemical substance/The level of expressed mRNA in the absence of chemical substance” value (yeast gene YLR250W) was 1.2, the “The level of expressed mRNA in the presence of chemical substance/ in its absence, gene YLR295C” value (yeast gene YLR295C, energy system protein genes, 2 h culture with the chemical, ratio to control without chemical) was 0.8 and the “The level of expressed mRNA in the presence of chemical substance/ (ratio to absence), gene YLR295C” value (yeast gene YLR295C, mitochondria-located protein genes, 2 h culture with chemical) was 0.8. The “The level of expressed mRNA in the presence of chemical substance/The level of expressed mRNA in the absence of chemical substance” value (yeast gene YLR327C) was 2.8, the “The level of expressed mRNA in the presence of chemical substance/ (in its absence), gene YLR351C” value (yeast gene YLR351C, ratio of DNA chip fluorescence intensity to that without chemical substance) was 0.9 and the “The level of expressed mRNA in the presence of chemical substance/The level of expressed mRNA in the absence of chemical substance” value (yeast gene YLR356W) was 2.5. For the same molecule, the “The level of expressed mRNA in the presence of chemical substance/The level of expressed mRNA in the absence of chemical substance” value (yeast gene YLR362W) was 2.4, the “The level of expressed mRNA in the presence of chemical substance/ (in its absence), gene YLR375W” value (yeast gene YLR375W, ratio of DNA chip fluorescence intensity to that without chemical substance) was 1.6 and the “The level of expressed mRNA in the presence of chemical substance/The level of expressed mRNA in the absence of chemical substance” value (yeast gene YLR391W) was 0.9. For the same molecule, the “The level of expressed mRNA in the presence of chemical substance/The level of expressed mRNA in the absence of chemical substance” value (yeast gene YLR429W) was 2.3, the “The level of expressed mRNA in the presence of chemical substance/ in its absence, gene YML129C” value (yeast gene YML129C, energy system protein genes, 2 h culture with the chemical, ratio to control without chemical) was 1.0 and the “The level of expressed mRNA in the presence of chemical substance/ (ratio to absence), gene YML129C” value (yeast gene YML129C, mitochondria-located protein genes, 2 h culture with chemical) was 1.0. For the same molecule, the “The level of expressed mRNA in the presence of chemical substance/The level of expressed mRNA in the absence of chemical substance” value (yeast gene YMR004W) was 2.2, the “The level of expressed mRNA in the presence of chemical substance/ (ratio to absence), gene YMR023C” value (yeast gene YMR023C, mitochondria-located protein genes, 2 h culture with chemical) was 1.1 and the “The level of expressed mRNA in the presence of chemical substance/The level of expressed mRNA in the absence of chemical substance” value (yeast gene YMR094W) was 1.4. The “The level of expressed mRNA in the presence of chemical substance/The level of expressed mRNA in the absence of chemical substance” value (yeast gene YMR104C) was 1.5, the “The level of expressed mRNA in the presence of chemical substance/ (ratio to absence of chemical substance)” value (yeast gene YMR186W) was 2.4 and the “The level of expressed mRNA in the presence of chemical substance/The level of expressed mRNA in the absence of chemical substance” value (yeast gene YMR219W) was 2.1. For the same molecule, the “The level of expressed mRNA in the presence of chemical substance/The level of expressed mRNA in the absence of chemical substance” value (yeast gene YMR226C) was 1.6, the “The level of expressed mRNA in the presence of chemical substance/ in its absence, gene YMR267W” value (yeast gene YMR267W, energy system protein genes, 2 h culture with the chemical, ratio to control without chemical) was 0.7 and the “The level of expressed mRNA in the presence of chemical substance/ (ratio to absence), gene YMR267W” value (yeast gene YMR267W, mitochondria-located protein genes, 2 h culture with chemical) was 0.7. The “The level of expressed mRNA in the presence of chemical substance/ in its absence, gene YMR267W” value (yeast gene YMR267W, ratio of DNA chip fluorescence intensity to that without chemical substance) was 0.7, the “The level of expressed mRNA in the presence of chemical substance/The level of expressed mRNA in the absence of chemical substance” value (yeast gene YMR275C) was 2.1 and the “The level of expressed mRNA in the presence of chemical substance/The level of expressed mRNA in the absence of chemical substance” value (yeast gene YMR276W) was 1.9. The “The level of expressed mRNA in the presence of chemical substance/ (in its absence), gene YMR278W” value (yeast gene YMR278W, ratio of DNA chip fluorescence intensity to that without chemical substance) was 2.5, the “The level of expressed mRNA in the presence of chemical substance/ (in its absence), gene YMR293C” value (yeast gene YMR293C, ratio of DNA chip fluorescence intensity to that without chemical substance) was 0.8 and the “The level of expressed mRNA in the presence of chemical substance/The level of expressed mRNA in the absence of chemical substance” value (yeast gene YMR314W) was 2.6.
